Calls of active or inactive are those of the source. The rule behind the calls is not given here.
How the values were obtained:
KM12 = test: Growth inhibition of human KM12 cells assessed as cell growth at 10^-7 M incubated for 48 hrs by sulforhodamine B assay relative to control; format: functional; settings: KM12, 48 h, read-out: Activity
HCT-116 = test: Growth inhibition of human HCT116 cells incubated for 48 hrs by sulforhodamine B assay; format: functional; settings: HCT-116, 48 h
CAKI-1 = test: Growth inhibition of human Caki1 cells assessed as cell growth at 10^-6 M incubated for 48 hrs by sulforhodamine B assay relative to control; format: functional; settings: CAKI-1, 48 h, read-out: Activity
SK-MEL-28 [1] = test: Growth inhibition of human SK-MEL-28 cells assessed as cell growth at 10^-5 M incubated for 48 hrs by sulforhodamine B assay relative to control; format: functional; settings: SK-MEL-28, 48 h, read-out: Activity
K562 = test: Growth inhibition of human K562 cells assessed as cell growth at 10^-8 M incubated for 48 hrs by sulforhodamine B assay relative to control; format: functional; settings: K562, 48 h, read-out: Activity
RXF 393 = test: Growth inhibition of human RXF393 cells incubated for 48 hrs by sulforhodamine B assay; format: functional; settings: RXF 393, 48 h
IGROV-1 = test: Growth inhibition of human IGROV1 cells assessed as cell growth at 10^-8 M incubated for 48 hrs by sulforhodamine B assay relative to control; format: functional; settings: IGROV-1, 48 h, read-out: Activity
CCRF-CEM [2] = test: Growth inhibition of human CCRF-CEM cells assessed as cell growth at 10^-7 M incubated for 48 hrs by sulforhodamine B assay relative to control; format: functional; settings: read-out: Activity
CCRF-CEM [3] = test: Growth inhibition of human CCRF-CEM cells assessed as cell growth at 10^-5 M incubated for 48 hrs by sulforhodamine B assay relative to control; format: functional; settings: read-out: Activity
HL-60 [4] = test: Induction of apoptosis in human HL60 cells assessed as early apoptotic cells by propidium iodide/Annexin V staining based flow cytometry (reference value: 0.37%); format: functional
LOX IMVI = test: Growth inhibition of human LOXIMVI cells assessed as cell growth at 10^-5 M incubated for 48 hrs by sulforhodamine B assay relative to control; format: functional; settings: read-out: Activity
MDA-MB-435 [5] = test: Induction of apoptosis in human MDA-MB-435 cells assessed as increase in caspase-9 expression by qRT-PCR method; format: functional, cell-based
BT-549 = test: Growth inhibition of human BT549 cells incubated for 48 hrs by sulforhodamine B assay; format: functional; settings: BT-549, 48 h
NCI-H226 = test: Growth inhibition of human NCI-H226 cells assessed as cell growth at 10^-4 M incubated for 48 hrs by sulforhodamine B assay relative to control; format: functional; settings: NCI-H226, 48 h, read-out: Activity
HCC 2998 [6] = test: Growth inhibition of human HCC2998 cells assessed as cell growth at 10^-5 M incubated for 48 hrs by sulforhodamine B assay relative to control; format: functional; settings: HCC 2998, 48 h, read-out: Activity
U-251 = test: Growth inhibition of human U251 cells assessed as cell growth at 10^-4 M incubated for 48 hrs by sulforhodamine B assay relative to control; format: functional; settings: U-251, 48 h, read-out: Activity
SNB-19 [7] = test: Growth inhibition of human SNB19 cells assessed as cell growth at 10^-7 M incubated for 48 hrs by sulforhodamine B assay relative to control; format: functional; settings: SNB-19, 48 h, read-out: Activity
HCC 2998 [8] = test: Growth inhibition of human HCC2998 cells assessed as cell growth at 10^-8 M incubated for 48 hrs by sulforhodamine B assay relative to control; format: functional; settings: HCC 2998, 48 h, read-out: Activity
RPMI-8226 = test: Growth inhibition of human RPMI8226 cells assessed as cell growth at 10^-5 M incubated for 48 hrs by sulforhodamine B assay relative to control; format: functional; settings: RPMI-8226, 48 h, read-out: Activity
786-0 = test: Growth inhibition of human 786-0 cells incubated for 48 hrs by sulforhodamine B assay; format: functional; settings: 786-0, 48 h
SN12C = test: Growth inhibition of human SN12C cells assessed as cell growth at 10^-6 M incubated for 48 hrs by sulforhodamine B assay relative to control; format: functional; settings: read-out: Activity
HL-60 [9] = test: Downregulation of HDAC1 mRNA expression in human HL60 cells by qRT-PCR method; format: functional, cell-based
SNB-19 [10] = test: Growth inhibition of human SNB19 cells assessed as cell growth at 10^-4 M incubated for 48 hrs by sulforhodamine B assay relative to control; format: functional; settings: SNB-19, 48 h, read-out: Activity
Malme-3M [11] = test: Growth inhibition of human MALME-3M cells assessed as cell growth at 10^-4 M incubated for 48 hrs by sulforhodamine B assay relative to control; format: functional; settings: read-out: Activity
Malme-3M [12] = test: Growth inhibition of human MALME-3M cells assessed as cell growth at 10^-8 M incubated for 48 hrs by sulforhodamine B assay relative to control; format: functional; settings: read-out: Activity
SK-MEL-28 [13] = test: Growth inhibition of human SK-MEL-28 cells assessed as cell growth at 10^-8 M incubated for 48 hrs by sulforhodamine B assay relative to control; format: functional; settings: SK-MEL-28, 48 h, read-out: Activity
NCI-H460 = test: Growth inhibition of human NCI-H460 cells assessed as cell growth at 10^-8 M incubated for 48 hrs by sulforhodamine B assay relative to control; format: functional; settings: NCI-H460, 48 h, read-out: Activity
NCI-H522 = test: Growth inhibition of human NCI-H522 cells assessed as cell growth at 10^-6 M incubated for 48 hrs by sulforhodamine B assay relative to control; format: functional; settings: NCI-H522, 48 h, read-out: Activity
MDA-MB-435 [14] = test: Induction of apoptosis in human MDA-MB-435 cells assessed as increase in caspase-3 expression by qRT-PCR method; format: functional, cell-based
A498 = test: Growth inhibition of human A498 cells assessed as cell growth at 10^-7 M incubated for 48 hrs by sulforhodamine B assay relative to control; format: functional; settings: A498, 48 h, read-out: Activity
HL-60 [15] = test: Induction of apoptosis in human HL60 cells assessed as increase in gammaH2ax expression by qRT-PCR method; format: functional, cell-based
Malme-3M [16] = test: Growth inhibition of human MALME-3M cells incubated for 48 hrs by sulforhodamine B assay; format: functional
[17] = read-out: LC50 (the source's name)
[18] = read-out: pLC50 (the source's name) (converted)

**Q.** What does the source list for `CCS/C(Nc1ccccc1)=C(\C#N)C(=O)N/N=C\c1ccc(Cl)cc1Cl`?
**A.** growth at 0.1 µM (KM12): 101%; GI50 (HCT-116; read-out: GI50): 2.99 µM; CC50 (HCT-116; [17]): > 100 µM; TGI (HCT-116; read-out: TGI): > 100 µM; GI50 (HCT-116; read-out: pGI50 (converted)): 3.02 µM; CC50 (HCT-116; [18]): > 100 µM; TGI (HCT-116; read-out: pTGI (converted)): > 100 µM; growth at 1 µM (CAKI-1): 67%; growth at 10 µM (SK-MEL-28 [1]): 53%; growth at 0.01 µM (K562): 106%; GI50 (RXF 393; read-out: GI50): 2.06 µM; CC50 (RXF 393; [17]): > 100 µM; TGI (RXF 393; read-out: TGI): 8.65 µM; GI50 (RXF 393; read-out: pGI50 (converted)): 2.04 µM; CC50 (RXF 393; [18]): > 100 µM; TGI (RXF 393; read-out: pTGI (converted)): 8.71 µM; growth at 0.01 µM (IGROV-1): 106%; growth at 0.1 µM (CCRF-CEM [2]): 95%; growth at 10 µM (CCRF-CEM [3]): 16%; Activity (HL-60 [4]): 7.69%; growth at 10 µM (LOX IMVI): 39%; Activity (MDA-MB-435 [5]): Active; GI50 (BT-549; read-out: GI50): 2.8 µM; CC50 (BT-549; [17]): > 100 µM; TGI (BT-549; read-out: TGI): > 100 µM; GI50 (BT-549; read-out: pGI50 (converted)): 2.82 µM; CC50 (BT-549; [18]): > 100 µM; TGI (BT-549; read-out: pTGI): > 100 µM; growth at 100 µM (NCI-H226): 11%; growth at 10 µM (HCC 2998 [6]): 33%; growth at 100 µM (U-251): 12%; growth at 0.1 µM (SNB-19 [7]): 94%; growth at 0.01 µM (HCC 2998 [8]): 101%; growth at 10 µM (RPMI-8226): 18%; GI50 (786-0; read-out: GI50): 3.5 µM; CC50 (786-0; [17]): > 100 µM; TGI (786-0; read-out: TGI): > 100 µM; GI50 (786-0; read-out: pGI50 (converted)): 3.47 µM; CC50 (786-0; [18]): > 100 µM; TGI (786-0; read-out: pTGI): > 100 µM; growth at 1 µM (SN12C): 96%; Activity (HL-60 [9]): Active; growth at 100 µM (SNB-19 [10]): 21%; growth at 100 µM (Malme-3M [11]): 26%; growth at 0.01 µM (Malme-3M [12]): 103%; growth at 0.01 µM (SK-MEL-28 [13]): 104%; growth at 0.01 µM (NCI-H460): 100%; growth at 1 µM (NCI-H522): 68%; Activity (MDA-MB-435 [14]): Active; growth at 0.1 µM (A498): 78%; Activity (HL-60 [15]): Active; GI50 (Malme-3M [16]; read-out: GI50): 9.3 µM; CC50 (Malme-3M [16]; [17]): > 100 µM; TGI (Malme-3M [16]; read-out: TGI): > 100 µM; GI50 (Malme-3M [16]; read-out: pGI50 (converted)): 9.33 µM; CC50 (Malme-3M [16]; [18]): > 100 µM; TGI (Malme-3M [16]; read-out: pTGI): > 100 µM

**Q.** Which results are given for `CCS/C(Nc1ccccc1)=C(\C#N)C(=O)Nc1ccc(OC)cc1`?
**A.** growth at 0.1 µM (KM12): 98%; GI50 (HCT-116; read-out: GI50): 1.95 µM; CC50 (HCT-116; [17]): > 100 µM; TGI (HCT-116; read-out: TGI): 16.4 µM; GI50 (HCT-116; read-out: pGI50 (converted)): 1.95 µM; CC50 (HCT-116; [18]): > 100 µM; TGI (HCT-116; read-out: pTGI (converted)): 16.6 µM; growth at 1 µM (CAKI-1): 73%; growth at 10 µM (SK-MEL-28 [1]): 53%; growth at 0.01 µM (K562): 106%; GI50 (RXF 393; read-out: GI50): 2.24 µM; CC50 (RXF 393; [17]): > 100 µM; TGI (RXF 393; read-out: TGI): 7.86 µM; GI50 (RXF 393; read-out: pGI50 (converted)): 2.24 µM; CC50 (RXF 393; [18]): > 100 µM; TGI (RXF 393; read-out: pTGI (converted)): 7.94 µM; growth at 0.01 µM (IGROV-1): 103%; growth at 0.1 µM (CCRF-CEM [2]): 83%; growth at 10 µM (CCRF-CEM [3]): 11%; Activity (HL-60 [4]): 4.89%; growth at 10 µM (LOX IMVI): 40%; Activity (MDA-MB-435 [5]): Active; GI50 (BT-549; read-out: GI50): 2.8 µM; CC50 (BT-549; [17]): > 100 µM; TGI (BT-549; read-out: TGI): > 100 µM; GI50 (BT-549; read-out: pGI50 (converted)): 2.82 µM; CC50 (BT-549; [18]): > 100 µM; TGI (BT-549; read-out: pTGI): > 100 µM; growth at 100 µM (NCI-H226): -15%; growth at 10 µM (HCC 2998 [6]): 41%; growth at 100 µM (U-251): 6%; growth at 0.1 µM (SNB-19 [7]): 95%; growth at 0.01 µM (HCC 2998 [8]): 102%; growth at 10 µM (RPMI-8226): 6%; GI50 (786-0; read-out: GI50): 4.14 µM; CC50 (786-0; [17]): > 100 µM; TGI (786-0; read-out: TGI): > 100 µM; GI50 (786-0; read-out: pGI50 (converted)): 4.17 µM; CC50 (786-0; [18]): > 100 µM; TGI (786-0; read-out: pTGI): > 100 µM; growth at 1 µM (SN12C): 96%; Activity (HL-60 [9]): Active; growth at 100 µM (SNB-19 [10]): 14%; growth at 100 µM (Malme-3M [11]): 45%; growth at 0.01 µM (Malme-3M [12]): 98%; growth at 0.01 µM (SK-MEL-28 [13]): 101%; growth at 0.01 µM (NCI-H460): 105%; growth at 1 µM (NCI-H522): 77%; Activity (MDA-MB-435 [14]): Active; growth at 0.1 µM (A498): 90%; Activity (HL-60 [15]): Active; GI50 (Malme-3M [16]; read-out: GI50): 47.3 µM; CC50 (Malme-3M [16]; [17]): > 100 µM; TGI (Malme-3M [16]; read-out: TGI): > 100 µM; GI50 (Malme-3M [16]; read-out: pGI50 (converted)): 46.8 µM; CC50 (Malme-3M [16]; [18]): > 100 µM; TGI (Malme-3M [16]; read-out: pTGI): > 100 µM
